Laboratory results published in US9850219B1, “Phenothiazine derivatives and methods of use thereof” (Acenda Pharma, Inc., priority 2016, dated 2017).

Columns and labels:
SUIT-2 = experiment: Cytotoxicity, sulforhodamine B (SRB) assay, SUIT-2; type: cell-based, human; conditions: SUIT-2, Pancreas, 48 h
Text: (§1) Human non-small cell lung cancer (NSCLC) cell lines (e.g., A549, H441GL and H1299), colon cancer cell lines (e.g., HCT116 and DLD1), breast cancer cell lines (e.g., MCF7 and MDA-MB-231), and pancreatic cancer cell lines (e.g., PANC-1 and SUIT-2) were used in cytotoxicity studies. These NSCLC cell lines have intrinsic resistance to epidermal growth factor receptor (EGFR) inhibitors, e.g., gefitinib. A549 and H441GL are EGFR-wild type adenocarcinoma cell lines. H1299 is an EGFR-wild type large cell carcinoma cell line. HCT116 and DLD1 are metastatic colon cell lines. MCF7 is a hormone-responsive breast cancer cell line. MDA-MB-231 is a triple-negative breast cancer cell line. PANC-1 is a metastatic adenocarcinoma cell line. SUIT-2 is a pancreatic ductal adenocarcinoma cell line.
(§2) All cell lines were grown and maintained in RPMI medium supplemented with 10% fetal bovine serum (FBS, Invitrogen), 2 mM L-glutamine, 100 U/mL penicillin, and 100 μg/mL streptomycin. For cell the culture experiment, stock solution (10 mM) of each test compound was dissolved in dimethyl sulfoxide (DMSO; Sigma).
(§3) Cells were plated in 96-well plates at a density of 2000 cells per well in triplicate. The cells in each well were treated on the third day (to ensure proper plating efficiency and vitality) with different concentrations (0-50 μM) of each test compound for 48 h.
(§4) Cell viability was assessed using the sulforhodamine B (SRB) assay. The medium was discarded, and the adherent cells were fixed by 100 μL of cold 10% trichloroacetic acid (w/v) in each well for 1 h at 4° C. After fixation, cells were stained with 100 μL/well of 0.4% (w/v, in 1% acetic acid) SRB solution for 30 min at room temperature, and then washed 5 times with 1% acetic acid. After air-drying, 100 μL of 10 mM Tris base was added to each well and the absorbance was read at 530 nm. Cytotoxicity is expressed as the percent of cells in drug treated wells relative to number of cells in the solvent only control (set to 100%). Each experiment was performed independently in triplicate and cytotoxicity IC50 value of each test compound was calculated from cytotoxicity data obtained at various concentrations.

MDA-MB-231 = experiment: Cytotoxicity, sulforhodamine B (SRB) assay, MDA-MB-231; type: cell-based, human; conditions: MDA-MB-231, Breast, 48 h
Text: as §1, §2, §3, §4

MCF7 = experiment: Cytotoxicity, sulforhodamine B (SRB) assay, MCF7; type: cell-based, human; conditions: MCF7, Breast, 48 h
Text: as §1, §2, §3, §4

H441GL = experiment: Cytotoxicity, sulforhodamine B (SRB) assay, H441GL; type: cell-based, Human; conditions: 48 h, NA indicates no activity
Text: as §1, with “These NSCLC cell lines have intrinsic resistance to epidermal growth factor receptor (EGFR) inhibitors, e.g., gefitinib.” left out
as §2, §3, §4

A549 = experiment: Cytotoxicity, sulforhodamine B (SRB) assay, A549; type: cell-based, Human; conditions: A549, 48 h, NA indicates no activity
Text: as §1, with “These NSCLC cell lines have intrinsic resistance to epidermal growth factor receptor (EGFR) inhibitors, e.g., gefitinib.” left out
as §2, §3, §4

PANC-1 = experiment: Cytotoxicity, sulforhodamine B (SRB) assay, PANC-1; type: cell-based, human; conditions: PANC-1, Pancreas, 48 h, NA = no activity
Text: as §1, §2, §3, §4

lung cancer cells = experiment: Cytotoxicity SRB assay, summary of Table 2; type: cell-based, Human; conditions: summary in words of Table 2
Text: as §1, §3, §4
NA indicates no activity.

H441GL cells [1] = experiment: Study 2: tumor size in mouse lung cancer model; type: in vivo, NOD/SCID mice; conditions: Study 2, 0.0127 mmol/kg daily, i.p.; for Tumor Size [Fold Change from Week 3 (Mean ± SD, n = 4)] Week 3: Week 3 (baseline, start of treatment)
Protocol: (§5) H441GL cells (1×10^6 cells in 100 μL phosphate-buffered saline/injection) were subcutaneously injected into the right flank of NOD/SCID mice (female, 4-6 weeks old). Mice were allowed 2 weeks for tumor growth. On the first day of Week 3 post injection, tumor-bearing mice were randomly divided into control group (DMSO vehicle, intraperitoneal (i.p.) injection) and test compound treatment groups (5 mg/kg/day, 5 days/week, i.p. injection). Over the period of 10 weeks, tumorigenesis in both groups was measured using a caliper on a weekly basis. The change in tumor size was expressed as in fold change from Week 3. In this study body weight of each mouse was also recorded at the end of each study week.
In this study, the daily dose was 0.0127 mmol/kg instead of 5 mg/kg.

H441GL cells [2] = experiment: Study 1: tumor size in mouse lung cancer model; type: in vivo, NOD/SCID mice; conditions: Study 1, 5 mg/kg/day, 5 days/week, i.p.; for Tumor Size [Fold Change from Week 3 (Mean ± SD, n = 4)] Week 3: Week 3 (baseline, start of treatment)
Protocol: as §5

H1299 = experiment: Cytotoxicity, sulforhodamine B (SRB) assay, H1299; type: cell-based; conditions: Homo sapiens, NCI-H1299, H1299, 48 h
Text: as §1, with “These NSCLC cell lines have intrinsic resistance to epidermal growth factor receptor (EGFR) inhibitors, e.g., gefitinib.” left out
as §2, §3, §4

| SMILES | IC50 (SUIT-2) | IC50 (MDA-MB-231) | IC50 (MCF7) | IC50 (H441GL) | IC50 (A549) | IC50 (PANC-1) | inhibition of cell proliferation of lung cancer cells (lung cancer cells) | IC50 (H441GL; Homo sapiens) | IC50 (A549; Homo sapiens) | further results |
| --- | --- | --- | --- | --- | --- | --- | --- | --- | --- | --- |
| COCCOCCOCCN1CCN(CCCN2c3ccccc3Sc3ccc(Cl)cc32)CC1 [Compound 4-1a] | 13.2 µM | 11.9 µM | 12.8 µM | 13.2 µM | 32.5 µM | 12.3 µM | inhibit cell proliferation |  |  |  |
| COCCOCCOCCOCCOCCOCCN1CCN(CCCN2c3ccccc3Sc3ccc(Cl)cc32)CC1 [Compound 4-2a] | 13.5 µM | 18.1 µM | 13.2 µM | 9.1 µM | 10.9 µM | 13.1 µM | inhibit cell proliferation |  |  | Tumor Size [Fold Change from Week 3 (Mean ± SD, n = 4)] Week 3 (H441GL cells [1]): 1 ± 0 Fold Change; Tumor Size [Fold Change from Week 3 (Mean ± SD, n = 4)] Week 9 (H441GL cells [1]): 10.3 ± 1.6 Fold Change; Tumor Size [Fold Change from Week 3 (Mean ± SD, n = 4)] Week 13 (H441GL cells [1]): 25.6 ± 5.1 Fold Change |
| COCCOCCOCCOCCOCCOCCOCCOCCOCCOCCOCCOCCN1CCN(CCCN2c3ccccc3Sc3ccc(Cl)cc32)CC1 [Compound 4-3a] | 25.4 µM | 15.6 µM | 10 µM | 12.7 µM | 11.9 µM | 7.1 µM | inhibit cell proliferation |  |  | Tumor Size [Fold Change from Week 3 (Mean ± SD, n = 4)] Week 3 (H441GL cells [1]): 1 ± 0 Fold Change; Tumor Size [Fold Change from Week 3 (Mean ± SD, n = 4)] Week 9 (H441GL cells [1]): 12.5 ± 1.5 Fold Change; Tumor Size [Fold Change from Week 3 (Mean ± SD, n = 4)] Week 13 (H441GL cells [1]): 32.6 ± 4.3 Fold Change |
| COCCOCCOCCOCCOCCOCCOCCOCCOCCOCCOCCOCCOCCOCCOCCOCCN1CCN(CCCN2c3ccccc3Sc3ccc(Cl)cc32)CC1 [Compound 4-4a] |  |  |  | 12.9 µM | 20.2 µM |  | inhibit cell proliferation |  |  |  |
| COCCOCCOCCOCCOCCOCCOCCOCCOCCOCCOCCOCCOCCOCCOCCOCCN1CCN(CCCN2c3ccccc3Sc3ccc(C(F)(F)F)cc32)CC1 [Compound 4-4b] |  |  |  | 36.4 µM |  |  |  |  |  |  |
| COCCOCCOCCOC(=O)N1CCN(CCCN2c3ccccc3Sc3ccc(Cl)cc32)CC1 [Compound 5-1a, NDP-CO—O—[CH2CH2O]3—CH3] | 18.6 µM | 22.2 µM | 15.5 µM | 16 µM | 15.7 µM | 6.7 µM | inhibit cell proliferation |  |  | Tumor Size [Fold Change from Week 3 (Mean ± SD, n = 4)] Week 3 (H441GL cells [2]): 1 ± 0 Fold Change; Tumor Size [Fold Change from Week 3 (Mean ± SD, n = 4)] Week 9 (H441GL cells [2]): 24.9 ± 4.3 Fold Change; Tumor Size [Fold Change from Week 3 (Mean ± SD, n = 4)] Week 13 (H441GL cells [2]): 55.4 ± 10.8 Fold Change |
| COCCOCCOCCOCCOCCOCCOC(=O)N1CCN(CCCN2c3ccccc3Sc3ccc(Cl)cc32)CC1 [Compound 5-2a, NDP-CO—O—[CH2CH2]6—CH3] | 16.2 µM | 21.6 µM | 15.3 µM | 18.7 µM | 25.2 µM | 6.9 µM | inhibit cell proliferation |  |  | Tumor Size [Fold Change from Week 3 (Mean ± SD, n = 4)] Week 3 (H441GL cells [2]): 1 ± 0 Fold Change; Tumor Size [Fold Change from Week 3 (Mean ± SD, n = 4)] Week 9 (H441GL cells [2]): 28.0 ± 6.5 Fold Change; Tumor Size [Fold Change from Week 3 (Mean ± SD, n = 4)] Week 13 (H441GL cells [2]): 66.2 ± 18.4 Fold Change |
| COCCOCCOCCOCCOCCOCCOCCOCCOCCOCCOCCOCCOC(=O)N1CCN(CCCN2c3ccccc3Sc3ccc(Cl)cc32)CC1 [Compound 5-3a, NDP-CO—O—[CH2CH2O]12—CH3] | 11.3 µM | 8.9 µM | 6.5 µM | 3 µM | 2.7 µM | 5 µM | inhibit cell proliferation |  |  | Tumor Size [Fold Change from Week 3 (Mean ± SD, n = 4)] Week 3 (H441GL cells [2]): 1 ± 0 Fold Change; Tumor Size [Fold Change from Week 3 (Mean ± SD, n = 4)] Week 9 (H441GL cells [2]): 23.7 ± 3.4 Fold Change; Tumor Size [Fold Change from Week 3 (Mean ± SD, n = 4)] Week 13 (H441GL cells [2]): 53.9 ± 10.1 Fold Change |
| COCCOCCOCCOCCOCCOCCOCCOCCOCCOCCOCCOCCOCCOCCOCCOCCOC(=O)N1CCN(CCCN2c3ccccc3Sc3ccc(Cl)cc32)CC1 [Compound 5-4a, NDP-CO—O—[CH2CH2O]16—CH3] |  |  |  | 3 µM | 6.2 µM |  | inhibit cell proliferation |  |  |  |
| COCCOCCOCCOCCOCCOCCOCCOCCOCCOCCOCCOCCOCCOCCOCCOCCOC(=O)N1CCN(CCCN2c3ccccc3Sc3ccc(C(F)(F)F)cc32)CC1 [Compound 5-4b, NDT-CO—O—[CH2CH2O]16—CH3] |  |  |  | 17.5 µM | 13.8 µM |  | inhibit cell proliferation |  |  |  |
| COCCOCCOCCOCC(=O)N1CCN(CCCN2c3ccccc3Sc3ccc(Cl)cc32)CC1 [Compound 6-1a, NDP-CO—[CH2CH2O]3—CH3] |  |  |  |  |  |  | inhibit cell proliferation | 21.5 µM | 25.8 µM |  |
| COCCOCCOCCOCC(=O)N1CCN(CCCN2c3ccccc3Sc3ccc(C(F)(F)F)cc32)CC1 [Compound 6-1b, NDT-CO—[CH2CH2O]3—CH3] |  |  |  |  |  |  | inhibit cell proliferation | 16.2 µM | 17 µM |  |
| COCCOCCOCCOCCOCCOCCOCC(=O)N1CCN(CCCN2c3ccccc3Sc3ccc(Cl)cc32)CC1 [Compound 6-2a, NDP-CO—[CH2CH2O]6—CH3] |  |  |  |  |  |  | inhibit cell proliferation | 25.2 µM | 31.5 µM |  |
| COCCOCCOCCOCCOCCOCCOCC(=O)N1CCN(CCCN2c3ccccc3Sc3ccc(C(F)(F)F)cc32)CC1 [Compound 6-2b, NDT-CO—[CH2CH2O]6—CH3] |  |  |  | 15.5 µM | 15.5 µM |  | inhibit cell proliferation |  |  |  |
| COCCOCCOCCOCCOCCOCCOCCOCCOCCOCCOCCOCCOCC(=O)N1CCN(CCCN2c3ccccc3Sc3ccc(Cl)cc32)CC1 [Compound 6-3a, NDP-CO—[CH2CH2O]12—CH3] |  |  |  |  |  |  | inhibit cell proliferation | 24.3 µM | 22.3 µM |  |
| COCCOCCOCCOCCOCCOCCOCCOCCOCCOCCOCCOCCOCC(=O)N1CCN(CCCN2c3ccccc3Sc3ccc(C(F)(F)F)cc32)CC1 [Compound 6-3b, NDT-CO—[CH2CH2O]12—CH3] |  |  |  |  | 20.6 µM |  |  |  |  |  |
| COCCOCCOCCOCCOCCOCCOCCOCCOCCOCCOCCOCCOCCOCCOCCOCCOCC(=O)N1CCN(CCCN2c3ccccc3Sc3ccc(Cl)cc32)CC1 [Compound 6-4a, NDP-CO—[CH2CH2O]16—CH3] |  |  |  |  |  |  |  | 39.1 µM |  |  |
| COCCOCCOCCOCCOCCOCCOCCOCCOCCOCCOCCOCCOCCOCCOCCOCCOCC(=O)N1CCN(CCCN2c3ccccc3Sc3ccc(C(F)(F)F)cc32)CC1 [Compound 6-4b, NDT-CO—[CH2CH2O]16—CH3] |  |  |  |  |  |  |  | 30 µM | 44.2 µM |  |
| FC(F)(F)c1ccc2c(c1)N(CCCN1CCNCC1)c1ccccc1S2 [NDT, N-desmethyl trifluoperazine, reference compound] |  |  |  |  |  |  | inhibit cell proliferation | 3.9 µM | 6.3 µM | IC50 (H1299): 6.9 µM |
